Patent publication US20220363673A1, “5-(Thiophen-2-YL)-1 H-Tetrazole Derivative as BCKDK Inhibitors Useful for Treating Various Diseases” (Pfizer Inc., priority 2019, published 2022)

How the values were obtained:
human BCKDK = biological target: T1, human BCKDK (Homo sapiens, UniProt O14874); experiment: In Vitro FRET (TR-FRET) BCKDK activity assay, phosphorylation of BCKDHE1α-E2 fusion substrate; type: biochemical; settings: geometric mean, two significant figures; 15 μM ATP
T1 construct: human BCKDK (residues 31-412 of the protein pre-processing); 6xHis (N, cleaved yes); MBP (N, cleaved yes); TEV protease site (ENLYFQG) (N, cleaved yes); made in house; host or cells: BL21(DE3) E. coli, co-expressed with GroEL-GroES
Experimental: BCKDK protein was generated using a pET vector containing from N- to C-terminus: 6×His, MBP, a TEV protease site (ENLYFQG), a biotin acceptor peptide ([…]), and human BCKDK (residues 31-412 of the protein pre-processing). Protein was co-expressed with GroEL-GroES in BL21(DE3) E. coli in LB media, and protein production was induced with 0.5 mM IPTG and 0.5 mg/mL L-arabinose at an OD600 of 1 and grown for 16 h at 26° C. Bacteria were lysed using a Microfluidizer in 100 mM potassium phosphate pH 7.5, 500 mM NaCl, 0.1 mM EDTA, 1% Tween-20, 0.25% Triton X-100, 10% glycerol, 1 mM DTT, and protease inhibitors. MBP-tagged protein was purified by affinity chromatography using amylose resin, and MBP was removed from BCKDK by TEV protease incubation followed by gel filtration chromatography in 50 mM HEPES pH 7.5, 500 mM NaCl, 300 mM L-Arginine, 2 mM MgCl2, 1 mM DTT, and 10% glycerol.
A pET vector containing E. coli LplA was expressed in BL21(DE3) E. coli in LB media, and protein production was induced with 0.75 mM IPTG at an OD600 of 1 and grown for 16 h at 30° C. Bacteria were lysed using a Microfluidizer in 50 mM sodium phosphate buffer pH 7.5, 350 mM NaCl, 1.5 mM MgCl2, and 1 mM DTT. LplA protein was precipitated from clarified lysate with 1 M ammonium sulfate and further purified by gel filtration chromatography in 50 mM sodium phosphate pH 7.5, 350 mM NaCl, 1.5 mM MgCl2, 1 mM DTT, and 10% glycerol.
The BCKDHE1α-E2 fusion substrate was cloned into a pET vector and contained from N- to C-terminus: the lipoyl binding domain of E2 (residues 62-160 pre-processing), a TEV protease site (LENLYFQG), residues 331-345 (pre-processing) from E1α, and 6×His (Tso, S. C. et al., J Biol Chem 2014, 289 (30), 20583-20593). The fusion substrate was expressed in BL21(DE3) E. coli in LB media, and protein production was induced with 0.75 mM IPTG at an OD600 of 1 and grown for 16 h at 30° C. Bacteria were lysed using a Microfluidizer in 50 mM sodium phosphate pH 7.5, 350 mM NaCl, 10 mM imidazole, 10% glycerol, 1 mM DTT, and protease inhibitors. […] For lipoylation, fusion substrate was incubated with LplA at a 10:1 (substrate:LplA) ratio in 20 mM sodium phosphate pH 7.4, 6 mM MgCl2, 4 mM ATP, 2 mM DTT, 3 mM DL-6,8-thioctic acid at 37° C. The reaction was monitored using an Agilent 6530 Q-TOF coupled to an Agilent 1290 UPLC. The final lipoylated fusion substrate was purified by gel filtration chromatography in 50 mM HEPES pH 7.5, 350 mM NaCl, 1.5 mM MgCl2, 1 mM DTT, 10% glycerol.
BCKDK activity was monitored by phosphorylation of a HIS-tagged fusion BCKDHE1α-E2 substrate protein as described above and was detected using a time resolved-fluorescence resonance energy transfer (TR-FRET) assay system. Compounds were spotted into a 384 well plate, and purified human BCKDK protein was added to the plated compound. After incubation, the LBD-linker-E1 phosphorylation sequence was added in the presence of 15 μM ATP. The reaction was terminated with EDTA. Phosphorylated substrate was recognized by the addition of rabbit anti-E1 phospho Ser293 antibodies (Bethyl Laboratories—A304-672A), and the TR-FRET signal was developed by addition of anti-HIS donor molecules (Europium; Perkin Elmer—AD0205, AD0110, AD0111) and anti-Rabbit acceptor molecules (Ulight; Perkin Elmer—TRF502D, TRF502M, TRF502R). Recognition of phosphorylated E1 brought donor and acceptor molecules into close proximity, and excitation at 320 nm caused energy transfer from the Europium donor to the Ulight acceptor dye, which in turn generated light at 665 nm. Signal intensity was proportional to the level of BCKDK-mediated substrate phosphorylation. Reactions were normalized to zero percent effect with DMSO and one hundred percent effect with 600 μM Radicicol, a known BCKDK inhibitor. IC50 curves were generated using ABASE software (IDBS, Boston Mass.).

[1] = tested on: phosphorylation of S293 BCKDH; experiment: Phospho BCKDHA AlphaLISA in human skeletal myocytes; type: cell-based; settings: 1 h, 60 minutes, maximal effect relative to BT2
Experimental: Prior to conducting the assay, BCKDH antibodies (Bethyl A303-790A) were biotinylated using the ChromaLink™ One-Shot Antibody Biotinylation Kit B-9007-009K and phospho Ser293 BCKDHA antibodies (Bethyl A304-672A) were directly conjugated to AlphaLISA Acceptor Beads (custom conjugation performed by Perkin Elmer's Lance/Delfia Custom Services, Boston Mass.). Human skeletal myocytes (Gibco A11440) were plated in a 384 well plate at a density of 7500 live cells/well and grown in skeletal muscle growth media containing the media supplement and chick embryo extract (Promocell C-23060 and C-23160, MP92850145). After overnight incubation, media was removed, and BCKDK inhibitors were added in assay media (growth media diluted 10-fold in PBS). After 60 minutes, the media was removed, the cells were washed with PBS and lysed in 10 μL of buffer (Cell Signaling #9803) containing 2 nM biotinylated total BCKDH antibodies. Samples were incubated for 60 minutes, and 5 μL of AlphaLISA acceptor beads conjugated with phospho-S293 BCKDH antibodies were added 1× Alpha buffer. […] Fluorescence was emitted when the phospho and total BCKDH antibodies were within proximity, signifying phosphorylation of S293 BCKDH. Fluorescence was monitored on the Envision plate reader. The zero percent effect was determined from DMSO treatment and the maximal effect was assessed relative to the BCKDK inhibitor BT2. […]

[2] = tested on: Dahl salt sensitive male rats; experiment: Heart Failure Rat Model, high salt diet; type: in vivo
Experimental: Dahl salt sensitive male rats (Charles River strain SS/JrHsdMcwiCrl) were fed control diet or 6% high salt diet (iD03121701-AIN-76a rodent diet with added 6% NaCl) for 21 weeks in total. At week 5, the high salt diet-fed rats were dosed PO with 100 mg/kg BT2 or vehicle once daily for the last 16 weeks of study. Echocardiography was performed at week 18 (myocardial performance index (MPI): control diet 0.567±0.034, high salt+vehicle 0.810±0.039, high salt+BT2 0.660±0.030; Isovolumic relaxation time (IVRT): control diet 23.154±0.60 ms, high salt+vehicle 36.507±2.20 ms, high salt+BT2 31.605±1.78 ms; Intraventricular septal thickness at diastole (IVDd): control 2.03±0.088 mm, high salt+vehicle 2.877±0.110 mm, high salt+BT2 2.489±0.089 mm). NT-pro-BNP (MSD K153JKD; control […], high salt+vehicle 1003.0±200.8 μg/mL, high salt+BT2 503.4±84.96 μg/mL), and proANP (MSD K153MBD; control 33.50±5.4 ng/mL, high salt 65.19±8.3 ng/mL, high salt+BT2 38.81±7.0 ng/mL) levels were measured in plasma using MSD assays at the terminal time point. Heart weights were measured at euthanasia and normalized to tibia length (heart/tibia control 0.033±0.001 g/mm; high salt+vehicle 0.042±0.001 g/mm, high salt+BT2 0.038±0.001 g/mm).

[3] = tested on: Mice fed 60% high fat diet; experiment: Diabetic Animal Model: fasting glucose and oral glucose tolerance test; type: in vivo; settings: for fasting plasma glucose levels: mean±SEM, vehicle 185±18; for Area under the curve for the glucose tolerance test as percent of vehicle treated group: 1 g/kg dextrose, vehicle 100.0±7
Experimental: Mice fed 60% high fat diet (Research Diets 12492) were dosed PO with Example 1 for one day, fasted overnight, and blood glucose was measured with an alpha track glucometer. The animals were dosed again PO with Example 1 the next morning, and one hour later, blood glucose was measured again immediately using an alpha track glucometer (Zoetis, Parsippany, N.J.) to assess fasting glucose levels prior to oral gavage of 1 g/kg dextrose. Blood glucose was measured 15, 30, 60, and 120 minutes after the gavage, and the data were plotted and analyzed as area under the curve using GraphPad Prism 8.0 (GraphPad Software, La Jolla, Calif.). For animals that were dosed with vehicle or Example 1 as above, mean±SEM fasting plasma glucose levels were 185±18 (vehicle, n=7), 194±14 (3 mg/kg, n=9), 160±11 (10 mg/kg, n=10), 136±9 mg/dL (30 mg/kg, n=9). Area under the curve for the glucose tolerance test as percent of vehicle treated group was 100.0±7 (vehicle, n=7), 106±9 (3 mg/kg, n=9), 99±2 (10 mg/kg, n=10), 72±4 (30 mg/kg, n=9).

| Compound | IC50 (human BCKDK) [nM] | IC50 [1] [µM] | Heart weight normalized to tibia length (heart/tibia) ([2]; at euthanasia, 100 mg/kg PO once daily, control 0.033±0.001, high salt+vehicle 0.042±0.001) [g/mm] | Intraventricular septal thickness at diastole (IVDd) ([2]; echocardiography week 18, 100 mg/kg PO once daily, control 2.03±0.088, high salt+vehicle 2.877±0.110) [mm] | myocardial performance index (MPI) ([2]; echocardiography week 18, 100 mg/kg PO once daily, control diet 0.567±0.034, high salt+vehicle 0.810±0.039) | Isovolumic relaxation time (IVRT) ([2]; echocardiography week 18, 100 mg/kg PO once daily, control diet 23.154±0.60, high salt+vehicle 36.507±2.20) [ms] | proANP level in plasma ([2]; terminal time point, 100 mg/kg PO once daily, control 33.50±5.4, high salt 65.19±8.3) [ng/mL] | fasting plasma glucose levels ([3]; 3 mg/kg PO, n=9) [mg/dL] | Area under the curve for the glucose tolerance test as percent of vehicle treated group ([3]; 3 mg/kg PO, n=9) | fasting plasma glucose levels ([3]; 10 mg/kg PO, n=10) [mg/dL] | Area under the curve for the glucose tolerance test as percent of vehicle treated group ([3]; 10 mg/kg PO, n=10) | fasting plasma glucose levels ([3]; 30 mg/kg PO, n=9) [mg/dL] | Area under the curve for the glucose tolerance test as percent of vehicle treated group ([3]; 30 mg/kg PO, n=9) |
| --- | --- | --- | --- | --- | --- | --- | --- | --- | --- | --- | --- | --- | --- |
| Cc1cc(Cl)sc1-c1nnn[nH]1 [Example 9, 5-(5-Chloro-3-methylthiophen-2-yl)-1H-tetrazole] | 1400 | 11 ± 0.87 | – | – | – | – | – | – | – | – | – | – | – |
| O=C(O)c1sc2cc(Cl)ccc2c1Cl [BT2] | – | – | 0.038±0.001 | 2.489±0.089 | 0.660±0.030 | 31.605 ± 1.78 | 38.81 ± 7.0 | – | – | – | – | – | – |
| Cc1c(Br)csc1-c1nnn[nH]1 [Example 1, 5-(4-Bromo-3-methylthiophen-2-yl)-1H-tetrazole] | 1900 | 18 ± 2.3 | – | – | – | – | – | 194 ± 14 | 106±9% of vehicle treated group | 160 ± 11 | 99±2% of vehicle treated group | 136 ± 9 | 72±4% of vehicle treated group |
